{
  "source": "paper PMC9954146",
  "about": "“Anti-Leukaemic Activity of Rilpivirine Is Mediated by Aurora A Kinase Inhibition” (Cancers, 2023)",
  "experiment_in_all_cases": "Kinase panel",
  "assay_type_in_all_cases": "biochemical",
  "settings_in_all_cases": "read-out: % Residual Activity",
  "key": {"ALK6(h)": {"biological_target": "T1, ALK6(h) (Homo sapiens, UniProt O00238)", "T1 construct": "purchased Eurofins (KinaseProfiler)", "procedure,_shortened": "(§1)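 In this kinome-wide profiling of rilpivirine, IC50 values were obtained in radiometric format at the Km concentration of ATP for each kinase, then expressed as Ki using Cheng–Prusoff.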"}, "NUAK2(h)": {"biological_target": "T2, NUAK2(h) (Homo sapiens, UniProt Q9H093)", "T2 construct": "purchased Eurofins (KinaseProfiler)", "procedure,_shortened": "as §1"}, "Hck(h)": {"biological_target": "T3, Hck(h) (Homo sapiens, UniProt P08631)", "T3 construct": "purchased Eurofins (KinaseProfiler)", "procedure,_shortened": "as §1"}, "Plk3(h)": {"biological_target": "T4, Plk3(h) (Homo sapiens, UniProt Q9H4B4)", "T4 construct": "purchased Eurofins (KinaseProfiler)", "procedure,_shortened": "as §1"}, "IRAK4(h)": {"biological_target": "T5, IRAK4(h) (Homo sapiens, UniProt Q9NWZ3)", "T5 construct": "purchased Eurofins (KinaseProfiler)", "procedure,_shortened": "as §1"}, "CK1ε(h)": {"biological_target": "T6, CK1ε(h) (Homo sapiens, UniProt P49674)", "T6 construct": "purchased Eurofins (KinaseProfiler)", "procedure,_shortened": "as §1"}, "PEK(h)": {"biological_target": "T7, PEK(h) (Homo sapiens, UniProt Q9NZJ5)", "T7 construct": "purchased Eurofins (KinaseProfiler)", "T7 sequence (Q9NZJ5 30-1116)": "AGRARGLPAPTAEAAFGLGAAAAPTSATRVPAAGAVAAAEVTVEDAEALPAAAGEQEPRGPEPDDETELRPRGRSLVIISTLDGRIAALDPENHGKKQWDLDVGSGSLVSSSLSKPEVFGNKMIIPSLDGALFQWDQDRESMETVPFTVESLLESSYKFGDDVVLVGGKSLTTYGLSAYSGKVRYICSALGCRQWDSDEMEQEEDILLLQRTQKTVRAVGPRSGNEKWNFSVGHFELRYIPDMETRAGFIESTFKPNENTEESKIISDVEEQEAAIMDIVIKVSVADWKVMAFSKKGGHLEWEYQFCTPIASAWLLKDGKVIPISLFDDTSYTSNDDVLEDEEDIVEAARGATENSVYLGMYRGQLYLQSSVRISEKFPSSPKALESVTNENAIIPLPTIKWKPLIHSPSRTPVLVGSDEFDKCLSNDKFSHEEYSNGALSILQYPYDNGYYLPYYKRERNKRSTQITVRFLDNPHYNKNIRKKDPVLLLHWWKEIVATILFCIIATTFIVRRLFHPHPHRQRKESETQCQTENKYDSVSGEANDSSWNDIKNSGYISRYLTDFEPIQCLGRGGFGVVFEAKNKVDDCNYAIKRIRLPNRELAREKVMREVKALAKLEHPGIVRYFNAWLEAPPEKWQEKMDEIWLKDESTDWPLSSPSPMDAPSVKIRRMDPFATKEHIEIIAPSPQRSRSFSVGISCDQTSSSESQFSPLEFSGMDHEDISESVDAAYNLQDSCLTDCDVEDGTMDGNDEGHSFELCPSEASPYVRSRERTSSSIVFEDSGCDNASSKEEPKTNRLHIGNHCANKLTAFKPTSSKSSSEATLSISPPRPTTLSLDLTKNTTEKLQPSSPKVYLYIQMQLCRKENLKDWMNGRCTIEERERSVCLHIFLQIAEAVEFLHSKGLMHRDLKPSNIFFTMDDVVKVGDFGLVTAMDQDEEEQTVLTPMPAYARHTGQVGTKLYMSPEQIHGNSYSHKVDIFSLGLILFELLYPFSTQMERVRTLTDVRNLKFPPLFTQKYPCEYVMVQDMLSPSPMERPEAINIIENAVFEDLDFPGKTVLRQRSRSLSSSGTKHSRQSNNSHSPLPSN", "procedure,_shortened": "as §1"}, "PKCθ(h)": {"biological_target": "T8, PKCθ(h) (Homo sapiens, UniProt Q04759)", "T8 construct": "purchased Eurofins (KinaseProfiler)", "procedure,_shortened": "as §1"}, "PAK3(h)": {"biological_target": "T9, PAK3(h) (Homo sapiens, UniProt O75914)", "T9 construct": "purchased Eurofins (KinaseProfiler)", "procedure,_shortened": "as §1"}, "SIK3(h)": {"biological_target": "T10, SIK3(h) (Homo sapiens, UniProt Q9Y2K2)", "T10 construct": "purchased Eurofins (KinaseProfiler)", "procedure,_shortened": "as §1"}, "p70S6K(h)": {"biological_target": "T11, p70S6K(h) (Homo sapiens, UniProt P23443)", "T11 construct": "purchased Eurofins (KinaseProfiler)", "procedure,_shortened": "as §1"}, "MEK1(h)": {"biological_target": "T12, MEK1(h) (Homo sapiens, UniProt Q02750)", "T12 construct": "purchased Eurofins (KinaseProfiler)", "procedure,_shortened": "as §1"}, "HIPK3(h)": {"biological_target": "T13, HIPK3(h) (Homo sapiens, UniProt Q9H422)", "T13 construct": "purchased Eurofins (KinaseProfiler)", "procedure,_shortened": "as §1"}, "SNRK(h)": {"biological_target": "T14, SNRK(h) (Homo sapiens, UniProt Q9NRH2)", "T14 construct": "purchased Eurofins (KinaseProfiler)", "procedure,_shortened": "as §1"}, "TrkA(h)": {"biological_target": "T15, TrkA(h) (Homo sapiens, UniProt P04629)", "T15 construct": "purchased Eurofins (KinaseProfiler)", "T15 sequence (P04629 33-796)": "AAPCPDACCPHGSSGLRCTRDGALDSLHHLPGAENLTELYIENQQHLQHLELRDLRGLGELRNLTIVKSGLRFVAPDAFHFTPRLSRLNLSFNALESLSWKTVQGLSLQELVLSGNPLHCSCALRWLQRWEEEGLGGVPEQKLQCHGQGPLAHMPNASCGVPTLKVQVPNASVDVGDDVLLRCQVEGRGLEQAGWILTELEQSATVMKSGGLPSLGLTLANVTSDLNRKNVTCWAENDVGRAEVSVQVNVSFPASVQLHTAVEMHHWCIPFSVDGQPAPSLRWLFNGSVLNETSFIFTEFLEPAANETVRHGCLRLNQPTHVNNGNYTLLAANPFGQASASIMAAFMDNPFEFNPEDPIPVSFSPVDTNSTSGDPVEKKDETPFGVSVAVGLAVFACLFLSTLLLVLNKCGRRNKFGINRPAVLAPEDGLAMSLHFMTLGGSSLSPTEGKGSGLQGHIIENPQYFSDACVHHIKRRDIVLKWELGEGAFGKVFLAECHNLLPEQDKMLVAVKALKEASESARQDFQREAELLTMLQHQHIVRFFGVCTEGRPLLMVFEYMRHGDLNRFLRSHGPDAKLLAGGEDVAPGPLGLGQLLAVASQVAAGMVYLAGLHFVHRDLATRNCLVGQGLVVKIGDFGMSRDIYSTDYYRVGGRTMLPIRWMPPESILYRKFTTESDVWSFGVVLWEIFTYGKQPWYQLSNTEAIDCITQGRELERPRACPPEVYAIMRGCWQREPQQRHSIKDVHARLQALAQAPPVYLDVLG", "procedure,_shortened": "as §1"}, "[1]": {"biological_target": "T16, PI3 Kinase (p110a/p85a)(m) (Mus musculus, UniProt P42337)", "T16 construct": "purchased Eurofins (KinaseProfiler)", "procedure,_shortened": "as §1"}, "Mnk2(h)": {"biological_target": "T17, Mnk2(h) (Homo sapiens, UniProt Q9HBH9)", "T17 construct": "purchased Eurofins (KinaseProfiler)", "procedure,_shortened": "as §1"}, "Tie2(R849W)(h)": {"biological_target": "T18, Tie2(R849W)(h) (Homo sapiens, UniProt Q02763, R849W)", "T18 construct": "purchased Eurofins (KinaseProfiler)", "T18 sequence (Q02763 23-1124 R849W)": "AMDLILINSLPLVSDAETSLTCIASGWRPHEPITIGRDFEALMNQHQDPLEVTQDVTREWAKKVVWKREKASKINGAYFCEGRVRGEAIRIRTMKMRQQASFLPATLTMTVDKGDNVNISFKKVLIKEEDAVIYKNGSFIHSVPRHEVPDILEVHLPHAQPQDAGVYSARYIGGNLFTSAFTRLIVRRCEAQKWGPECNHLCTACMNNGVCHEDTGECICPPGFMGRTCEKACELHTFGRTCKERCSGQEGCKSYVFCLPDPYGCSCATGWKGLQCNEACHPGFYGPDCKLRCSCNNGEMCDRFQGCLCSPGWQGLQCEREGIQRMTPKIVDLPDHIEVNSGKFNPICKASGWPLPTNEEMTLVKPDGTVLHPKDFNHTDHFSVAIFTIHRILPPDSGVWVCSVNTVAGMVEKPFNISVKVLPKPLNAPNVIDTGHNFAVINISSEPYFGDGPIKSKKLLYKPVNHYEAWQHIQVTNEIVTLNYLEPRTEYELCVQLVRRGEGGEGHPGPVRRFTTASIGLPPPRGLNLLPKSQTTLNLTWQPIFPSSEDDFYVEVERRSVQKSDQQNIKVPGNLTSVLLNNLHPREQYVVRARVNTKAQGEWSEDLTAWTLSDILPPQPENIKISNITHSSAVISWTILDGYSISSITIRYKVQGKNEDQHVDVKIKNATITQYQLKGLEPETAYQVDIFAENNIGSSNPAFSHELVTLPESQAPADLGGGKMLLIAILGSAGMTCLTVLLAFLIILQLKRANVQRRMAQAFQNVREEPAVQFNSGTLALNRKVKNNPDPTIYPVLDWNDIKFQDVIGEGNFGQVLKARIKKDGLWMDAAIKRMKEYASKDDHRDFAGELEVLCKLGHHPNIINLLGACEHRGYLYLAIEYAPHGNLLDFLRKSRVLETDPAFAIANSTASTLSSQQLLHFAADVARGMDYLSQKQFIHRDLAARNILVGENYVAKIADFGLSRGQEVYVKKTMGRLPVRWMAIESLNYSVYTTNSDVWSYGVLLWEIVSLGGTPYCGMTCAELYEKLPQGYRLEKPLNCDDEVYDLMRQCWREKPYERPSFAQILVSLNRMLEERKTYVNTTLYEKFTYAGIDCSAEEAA", "procedure,_shortened": "as §1"}, "BTK(h)": {"biological_target": "T19, BTK(h) (Homo sapiens, UniProt Q06187)", "T19 construct": "purchased Eurofins (KinaseProfiler)", "procedure,_shortened": "as §1"}, "PAK2(h)": {"biological_target": "T20, PAK2(h) (Homo sapiens, UniProt Q13177)", "T20 construct": "purchased Eurofins (KinaseProfiler)", "procedure,_shortened": "as §1"}, "MST4(h)": {"biological_target": "T21, MST4(h) (Homo sapiens, UniProt Q9P289)", "T21 construct": "purchased Eurofins (KinaseProfiler)", "procedure,_shortened": "as §1"}, "MLK4(h)": {"biological_target": "T22, MLK4(h) (Homo sapiens, UniProt Q5TCX8)", "T22 construct": "purchased Eurofins (KinaseProfiler)", "procedure,_shortened": "as §1"}, "IRAK1(h)": {"biological_target": "T23, IRAK1(h) (Homo sapiens, UniProt P51617)", "T23 construct": "purchased Eurofins (KinaseProfiler)", "procedure,_shortened": "as §1"}, "DDR2(h)": {"biological_target": "T24, DDR2(h) (Homo sapiens, UniProt Q16832)", "T24 construct": "purchased Eurofins (KinaseProfiler)", "procedure,_shortened": "as §1"}, "ATM(h)": {"biological_target": "T25, ATM(h) (Homo sapiens, UniProt Q13315)", "T25 construct": "purchased Eurofins (KinaseProfiler)", "procedure,_shortened": "as §1"}, "Fgr(h)": {"biological_target": "T26, Fgr(h) (Homo sapiens, UniProt P09769)", "T26 construct": "purchased Eurofins (KinaseProfiler)", "procedure,_shortened": "as §1"}, "MYO3B(h)": {"biological_target": "T27, MYO3B(h) (Homo sapiens, UniProt Q8WXR4)", "T27 construct": "purchased Eurofins (KinaseProfiler)", "procedure,_shortened": "as §1"}, "PKR(h)": {"biological_target": "T28, PKR(h) (Homo sapiens, UniProt P19525)", "T28 construct": "purchased Eurofins (KinaseProfiler)", "procedure,_shortened": "as §1"}, "TAK1(h)": {"biological_target": "T29, TAK1(h) (Homo sapiens, UniProt O43318)", "T29 construct": "purchased Eurofins (KinaseProfiler)", "procedure,_shortened": "as §1"}, "PKG1α(h)": {"biological_target": "T30, PKG1α(h) (Homo sapiens, UniProt Q13976)", "T30 construct": "purchased Eurofins (KinaseProfiler)", "procedure,_shortened": "as §1"}, "DCAMKL1(h)": {"biological_target": "T31, DCAMKL1(h) (Homo sapiens, UniProt O15075)", "T31 construct": "purchased Eurofins (KinaseProfiler)", "procedure,_shortened": "as §1"}, "TrkB(h)": {"biological_target": "T32, TrkB(h) (Homo sapiens, UniProt Q16620)", "T32 construct": "purchased Eurofins (KinaseProfiler)", "T32 sequence (Q16620 32-822)": "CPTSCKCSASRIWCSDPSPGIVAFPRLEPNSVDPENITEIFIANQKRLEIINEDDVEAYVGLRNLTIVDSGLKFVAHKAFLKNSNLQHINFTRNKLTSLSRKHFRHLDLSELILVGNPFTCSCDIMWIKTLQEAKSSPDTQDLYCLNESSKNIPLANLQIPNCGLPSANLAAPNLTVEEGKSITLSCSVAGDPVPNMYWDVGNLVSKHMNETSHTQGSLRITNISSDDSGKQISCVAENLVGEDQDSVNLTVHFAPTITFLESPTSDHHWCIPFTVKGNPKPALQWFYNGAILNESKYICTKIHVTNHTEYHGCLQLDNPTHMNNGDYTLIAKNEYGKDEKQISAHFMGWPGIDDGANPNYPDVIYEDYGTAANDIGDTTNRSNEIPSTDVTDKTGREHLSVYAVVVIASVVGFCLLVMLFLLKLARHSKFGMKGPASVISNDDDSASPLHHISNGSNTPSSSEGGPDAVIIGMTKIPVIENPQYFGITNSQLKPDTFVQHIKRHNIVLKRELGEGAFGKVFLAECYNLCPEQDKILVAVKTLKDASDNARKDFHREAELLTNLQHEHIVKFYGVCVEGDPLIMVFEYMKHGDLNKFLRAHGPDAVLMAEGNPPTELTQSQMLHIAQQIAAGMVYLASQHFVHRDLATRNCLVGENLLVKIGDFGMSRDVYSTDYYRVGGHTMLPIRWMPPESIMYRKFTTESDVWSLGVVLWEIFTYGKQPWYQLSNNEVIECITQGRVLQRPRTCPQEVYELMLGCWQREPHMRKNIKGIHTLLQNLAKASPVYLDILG", "procedure,_shortened": "as §1"}, "PhKγ1(h)": {"biological_target": "T33, PhKγ1(h) (Homo sapiens, UniProt Q16816)", "T33 construct": "purchased Eurofins (KinaseProfiler)", "procedure,_shortened": "as §1"}, "SAPK4(h)": {"biological_target": "T34, SAPK4(h) (Homo sapiens, UniProt O15264)", "T34 construct": "purchased Eurofins (KinaseProfiler)", "procedure,_shortened": "as §1"}, "Met(Y1248H)(h)": {"biological_target": "T35, Met(Y1248H)(h) (Homo sapiens, UniProt P08581, Y1230H)", "T35 construct": "purchased Eurofins (KinaseProfiler)", "T35 sequence (P08581 956-1390 Y1230H limits assumed)": "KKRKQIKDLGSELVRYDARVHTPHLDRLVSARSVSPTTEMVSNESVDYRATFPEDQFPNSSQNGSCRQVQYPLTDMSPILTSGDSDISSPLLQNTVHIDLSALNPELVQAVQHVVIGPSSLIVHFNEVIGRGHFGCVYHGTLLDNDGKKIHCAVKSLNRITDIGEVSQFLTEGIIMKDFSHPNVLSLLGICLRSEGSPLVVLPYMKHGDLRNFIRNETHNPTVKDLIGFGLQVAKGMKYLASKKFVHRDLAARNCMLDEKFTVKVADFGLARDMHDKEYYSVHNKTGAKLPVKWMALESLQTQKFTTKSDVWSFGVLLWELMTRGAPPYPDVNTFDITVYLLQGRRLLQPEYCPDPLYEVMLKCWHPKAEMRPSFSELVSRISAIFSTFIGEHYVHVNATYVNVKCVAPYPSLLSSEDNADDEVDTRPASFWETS", "procedure,_shortened": "as §1"}, "TAO3(h)": {"biological_target": "T36, TAO3(h) (Homo sapiens, UniProt Q9H2K8)", "T36 construct": "purchased Eurofins (KinaseProfiler)", "T36 sequence (Q9H2K8 whole entry)": "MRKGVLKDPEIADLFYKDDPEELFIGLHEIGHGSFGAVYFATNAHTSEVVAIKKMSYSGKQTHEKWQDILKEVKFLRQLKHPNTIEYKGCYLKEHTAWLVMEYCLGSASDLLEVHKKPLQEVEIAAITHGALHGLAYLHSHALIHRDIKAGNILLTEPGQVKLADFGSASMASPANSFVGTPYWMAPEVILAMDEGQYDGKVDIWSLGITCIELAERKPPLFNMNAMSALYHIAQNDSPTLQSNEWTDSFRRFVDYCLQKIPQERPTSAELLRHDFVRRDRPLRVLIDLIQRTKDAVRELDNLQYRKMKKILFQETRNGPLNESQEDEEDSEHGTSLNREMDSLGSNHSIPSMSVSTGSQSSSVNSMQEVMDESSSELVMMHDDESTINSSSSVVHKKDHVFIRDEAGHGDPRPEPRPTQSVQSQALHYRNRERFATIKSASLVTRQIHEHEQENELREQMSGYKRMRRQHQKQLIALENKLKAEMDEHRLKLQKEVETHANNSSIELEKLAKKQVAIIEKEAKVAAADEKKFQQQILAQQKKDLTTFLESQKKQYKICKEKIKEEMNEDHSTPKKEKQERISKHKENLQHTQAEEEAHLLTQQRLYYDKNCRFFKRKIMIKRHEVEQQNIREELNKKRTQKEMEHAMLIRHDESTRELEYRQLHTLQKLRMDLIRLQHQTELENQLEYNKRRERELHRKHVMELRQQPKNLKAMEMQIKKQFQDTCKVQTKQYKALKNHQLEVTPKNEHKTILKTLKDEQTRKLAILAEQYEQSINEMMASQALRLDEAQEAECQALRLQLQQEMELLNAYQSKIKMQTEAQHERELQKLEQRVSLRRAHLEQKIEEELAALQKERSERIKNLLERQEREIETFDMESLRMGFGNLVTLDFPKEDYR", "procedure,_shortened": "as §1"}, "NEK2(h)": {"biological_target": "T37, NEK2(h) (Homo sapiens, UniProt P51955)", "T37 construct": "purchased Eurofins (KinaseProfiler)", "procedure,_shortened": "as §1"}, "EphA4(h)": {"biological_target": "T38, EphA4(h) (Homo sapiens, UniProt P54764)", "T38 construct": "purchased Eurofins (KinaseProfiler)", "procedure,_shortened": "as §1"}, "PKG1β(h)": {"biological_target": "T39, PKG1β(h) (Homo sapiens, UniProt Q13976)", "T39 construct": "purchased Eurofins (KinaseProfiler)", "procedure,_shortened": "as §1"}},
  "data": [
    {"compound": "Cc1cc(/C=C/C#N)cc(C)c1Nc1ccnc(Nc2ccc(C#N)cc2)n1", "note": "[rilpivirine, (E)-4-((4-((4-(2-cyanoethenyl)-2,6-dimethylphenyl)amino)pyrimidin-2-yl)amino)benzonitrile]", "values": [
      {"measurement": "remaining activity at 1 µM", "setting": "ALK6(h)", "result": 83, "unit": "%"},
      {"measurement": "remaining activity at 1 µM", "setting": "NUAK2(h)", "result": 101, "unit": "%"},
      {"measurement": "remaining activity at 1 µM", "setting": "Hck(h)", "result": 50, "unit": "%"},
      {"measurement": "remaining activity at 1 µM", "setting": "Plk3(h)", "result": 99, "unit": "%"},
      {"measurement": "remaining activity at 1 µM", "setting": "IRAK4(h)", "result": 80, "unit": "%"},
      {"measurement": "remaining activity at 1 µM", "setting": "CK1ε(h)", "result": 116, "unit": "%"},
      {"measurement": "remaining activity at 1 µM", "setting": "PEK(h)", "result": 82, "unit": "%"},
      {"measurement": "remaining activity at 1 µM", "setting": "PKCθ(h)", "result": 66, "unit": "%"},
      {"measurement": "remaining activity at 1 µM", "setting": "PAK3(h)", "result": 86, "unit": "%"},
      {"measurement": "remaining activity at 1 µM", "setting": "SIK3(h)", "result": 89, "unit": "%"},
      {"measurement": "remaining activity at 1 µM", "setting": "p70S6K(h)", "result": 108, "unit": "%"},
      {"measurement": "remaining activity at 1 µM", "setting": "MEK1(h)", "result": 101, "unit": "%"},
      {"measurement": "remaining activity at 1 µM", "setting": "HIPK3(h)", "result": 92, "unit": "%"},
      {"measurement": "remaining activity at 1 µM", "setting": "SNRK(h)", "result": 104, "unit": "%"},
      {"measurement": "remaining activity at 1 µM", "setting": "TrkA(h)", "result": 101, "unit": "%"},
      {"measurement": "remaining activity at 1 µM", "setting": "[1]", "result": 100, "unit": "%"},
      {"measurement": "remaining activity at 1 µM", "setting": "Mnk2(h)", "result": 85, "unit": "%"},
      {"measurement": "remaining activity at 1 µM", "setting": "Tie2(R849W)(h)", "result": 86, "unit": "%"},
      {"measurement": "remaining activity at 1 µM", "setting": "BTK(h)", "result": 90, "unit": "%"},
      {"measurement": "remaining activity at 1 µM", "setting": "PAK2(h)", "result": 89, "unit": "%"},
      {"measurement": "remaining activity at 1 µM", "setting": "MST4(h)", "result": 91, "unit": "%"},
      {"measurement": "remaining activity at 1 µM", "setting": "MLK4(h)", "result": 95, "unit": "%"},
      {"measurement": "remaining activity at 1 µM", "setting": "IRAK1(h)", "result": 84, "unit": "%"},
      {"measurement": "remaining activity at 1 µM", "setting": "DDR2(h)", "result": 82, "unit": "%"},
      {"measurement": "remaining activity at 1 µM", "setting": "ATM(h)", "result": 111, "unit": "%"},
      {"measurement": "remaining activity at 1 µM", "setting": "Fgr(h)", "result": 37, "unit": "%"},
      {"measurement": "remaining activity at 1 µM", "setting": "MYO3B(h)", "result": 96, "unit": "%"},
      {"measurement": "remaining activity at 1 µM", "setting": "PKR(h)", "result": 92, "unit": "%"},
      {"measurement": "remaining activity at 1 µM", "setting": "TAK1(h)", "result": 105, "unit": "%"},
      {"measurement": "remaining activity at 1 µM", "setting": "PKG1α(h)", "result": 88, "unit": "%"},
      {"measurement": "remaining activity at 1 µM", "setting": "DCAMKL1(h)", "result": 91, "unit": "%"},
      {"measurement": "remaining activity at 1 µM", "setting": "TrkB(h)", "result": 72, "unit": "%"},
      {"measurement": "remaining activity at 1 µM", "setting": "PhKγ1(h)", "result": 80, "unit": "%"},
      {"measurement": "remaining activity at 1 µM", "setting": "SAPK4(h)", "result": 97, "unit": "%"},
      {"measurement": "remaining activity at 1 µM", "setting": "Met(Y1248H)(h)", "result": 98, "unit": "%"},
      {"measurement": "remaining activity at 1 µM", "setting": "TAO3(h)", "result": 65, "unit": "%"},
      {"measurement": "remaining activity at 1 µM", "setting": "NEK2(h)", "result": 97, "unit": "%"},
      {"measurement": "remaining activity at 1 µM", "setting": "EphA4(h)", "result": 93, "unit": "%"},
      {"measurement": "remaining activity at 1 µM", "setting": "PKG1β(h)", "result": 79, "unit": "%"}
    ]}
  ]
}
